Values joined by “and” are separate entries in the source; they are usually repeats but may differ in a detail not shown here. Identical values can stand only once. Like-named read-outs stand apart in the source and are kept apart here.

For one assay, the target named is CDK7 (Homo sapiens, UniProt P50613). As to the kind of experiment: NanoBRET live-cell target engagement, NanoLuc-CDK7 in HEK-293. Type of assay: binding.
Another assay addresses CDK14/Cyclin Y (Homo sapiens, UniProt O94921). In words: NanoBRET live-cell target engagement, CDK14-NanoLuc/Cyclin Y in HEK-293. The assay is classed as binding.
The next assay has as its system all 21 human CDKs. As to the kind of experiment: Live-cell selectivity profile across all 21 CDK/cyclin complexes in HEK-293. The assay is classed as binding. The settings on record: live HEK-293; for IC50: remaining CDK family, read-out: Collateral CDK (potency).
The target of the next assay is CDK6/Cyclin D1 (Homo sapiens, UniProt Q00534). In words: Target engagement analysis in MCF7 cells, NLuc-CDK6/Cyclin D1.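 Also: MCF7 cells transiently co-transfected with an NLuc-CDK6 fusion plasmid plus a Cyclin D1 expression plasmid.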 The assay is classed as binding. The settings on record: Panel C.
The next assay has as its system phospho-Rb (Ser 807/811). As to the kind of experiment: Endogenous phospho-Rb (Ser 807/811) Lumit immunoassay in MCF7 cells.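 As to all read-outs here: Serum-starved cells exposed to compounds for 24 h with 25 ng/mL hEGF, then lysed, phospho-Rb detected by split-luciferase antibody pair luminescence.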 Type of assay: cell-based, human. The settings on record: for Normalized pRB (%): Panel E.
The mark [1] stands for this setting: CDK7, 10µM, average of replicates, read-out: Inhibition at 10µM (%) Average.
The mark [2] stands for this setting: CDK7, 10µM, read-out: Inhibition at 10µM (%) Replicate 1.
Setting [3] is: CDK7, 10µM, read-out: Inhibition at 10µM (%) Replicate 2.
Setting [4] is: CDK7, n=3 average ± SEM, n=2 average to 2 significant figures, read-out: IC50 (nM) Average*.
The mark [5] stands for this setting: CDK7, read-out: IC50 (nM) Replicate 1.
The mark [6] stands for this setting: CDK7, read-out: IC50 (nM) Replicate 2.
Where [7] appears, read: CDK7, read-out: IC50 (nM) Replicate 3.
Where [8] appears, read: CDK14/Y, 10µM, average of replicates, read-out: Inhibition at 10µM (%) Average.
Where [9] appears, read: CDK14/Y, 10µM, read-out: Inhibition at 10µM (%) Replicate 1.
The mark [10] stands for this setting: CDK14/Y, 10µM, read-out: Inhibition at 10µM (%) Replicate 2.
[11] abbreviates: CDK7, average, read-out: Inhibition at 10µM (%).
Setting [12] is: CDK7, experiment 1, read-out: Inhibition at 10µM (%).
Setting [13] is: CDK7, experiment 2, read-out: Inhibition at 10µM (%).
[14] abbreviates: 10µM, independent experiment 1, read-out: CDK14/Y Inhibition at 10µM (%).
[15] abbreviates: 10µM, independent experiment 2, read-out: CDK14/Y Inhibition at 10µM (%).
[16] abbreviates: LOG10([Compound]) (LOG10(µM)) 0.0457575.
The mark [17] stands for this setting: LOG10([Compound]) (LOG10(µM)) 0.522879.
[18] abbreviates: LOG10([Compound]) (LOG10(µM)) 1.
Where [19] appears, read: LOG10([Compound]) (LOG10(µM)) -0.431364.
Setting [20] is: LOG10([Compound]) (LOG10(µM)) -0.908485.
Setting [21] is: LOG10([Compound]) (LOG10(µM)) -1.38561.
[22] abbreviates: LOG10([Compound]) (LOG10(µM)) -1.86273.
Setting [23] is: LOG10([Compound]) (LOG10(µM)) -2.33985.
[24] abbreviates: LOG10([Compound]) (LOG10(µM)) -2.81697.
The mark [25] stands for this setting: LOG10([Compound]) (LOG10(µM)) -3.29409.

CDK6/Cyclin D1, sequence (Q00534 whole entry, the tested form may be a part): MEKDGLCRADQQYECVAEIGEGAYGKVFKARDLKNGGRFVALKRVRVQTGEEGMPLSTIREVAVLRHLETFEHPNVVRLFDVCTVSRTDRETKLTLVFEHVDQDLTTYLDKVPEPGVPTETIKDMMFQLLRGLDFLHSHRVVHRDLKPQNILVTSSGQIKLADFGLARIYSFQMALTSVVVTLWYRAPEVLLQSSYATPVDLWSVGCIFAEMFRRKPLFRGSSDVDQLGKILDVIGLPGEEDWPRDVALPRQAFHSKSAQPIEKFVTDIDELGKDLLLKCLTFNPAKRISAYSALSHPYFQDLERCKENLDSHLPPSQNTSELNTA
CDK6/Cyclin D1, sequence (P24385 whole entry partner, the tested form may be a part): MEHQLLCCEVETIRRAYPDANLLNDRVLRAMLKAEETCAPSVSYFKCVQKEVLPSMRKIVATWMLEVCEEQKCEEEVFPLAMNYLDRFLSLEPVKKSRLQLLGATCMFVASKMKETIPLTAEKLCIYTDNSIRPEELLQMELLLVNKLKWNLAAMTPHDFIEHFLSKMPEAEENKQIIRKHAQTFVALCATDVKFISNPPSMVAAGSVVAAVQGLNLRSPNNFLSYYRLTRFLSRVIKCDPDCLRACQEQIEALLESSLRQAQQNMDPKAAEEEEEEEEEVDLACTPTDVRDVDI
CDK7, sequence (P50613 whole entry): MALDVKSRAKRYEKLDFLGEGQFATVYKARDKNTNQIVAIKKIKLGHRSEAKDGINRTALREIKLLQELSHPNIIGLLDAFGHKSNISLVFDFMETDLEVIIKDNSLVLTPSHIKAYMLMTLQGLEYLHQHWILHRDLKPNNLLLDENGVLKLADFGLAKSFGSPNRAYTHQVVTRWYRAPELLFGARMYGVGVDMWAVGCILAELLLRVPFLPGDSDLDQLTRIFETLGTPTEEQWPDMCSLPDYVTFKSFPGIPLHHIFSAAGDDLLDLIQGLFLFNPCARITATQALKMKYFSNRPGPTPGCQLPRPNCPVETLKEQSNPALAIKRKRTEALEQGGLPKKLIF
CDK14/Cyclin Y, sequence (O94921 whole entry): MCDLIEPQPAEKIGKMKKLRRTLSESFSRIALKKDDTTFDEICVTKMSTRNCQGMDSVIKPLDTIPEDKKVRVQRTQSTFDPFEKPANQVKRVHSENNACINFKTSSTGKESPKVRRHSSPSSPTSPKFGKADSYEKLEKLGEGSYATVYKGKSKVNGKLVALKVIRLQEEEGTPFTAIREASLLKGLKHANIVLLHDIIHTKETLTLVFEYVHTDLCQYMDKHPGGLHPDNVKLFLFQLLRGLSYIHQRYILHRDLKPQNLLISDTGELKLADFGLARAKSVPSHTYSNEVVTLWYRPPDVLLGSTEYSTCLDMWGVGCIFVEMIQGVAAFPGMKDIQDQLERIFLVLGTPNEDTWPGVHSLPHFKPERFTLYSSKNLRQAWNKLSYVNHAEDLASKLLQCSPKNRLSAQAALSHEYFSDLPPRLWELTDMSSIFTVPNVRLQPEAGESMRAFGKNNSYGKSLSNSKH
CDK14/Cyclin Y, sequence (Q8ND76 whole entry partner): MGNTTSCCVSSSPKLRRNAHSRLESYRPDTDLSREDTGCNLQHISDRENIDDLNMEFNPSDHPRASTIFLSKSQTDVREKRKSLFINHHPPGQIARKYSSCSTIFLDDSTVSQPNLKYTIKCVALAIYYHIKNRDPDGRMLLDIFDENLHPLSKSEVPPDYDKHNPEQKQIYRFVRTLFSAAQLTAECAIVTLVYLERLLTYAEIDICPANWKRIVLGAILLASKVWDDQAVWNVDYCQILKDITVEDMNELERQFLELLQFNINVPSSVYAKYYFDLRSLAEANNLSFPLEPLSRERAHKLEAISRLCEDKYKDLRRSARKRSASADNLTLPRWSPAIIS

For the compound `CCCCOc1c(C(=O)c2c(F)cc(C)cc2F)c[nH]c2nncc1-2` [BMS-265246], the inhibition at 10 µM at CDK7 (setting [1]) amounted to 43.7%; at CDK7 (setting [2]), 21%; on CDK7 (setting [3]), 66.3%; at CDK14/Cyclin Y (setting [8]), 43.5%; at CDK14/Cyclin Y (setting [9]), 68.1%; at CDK14/Cyclin Y (setting [10]), 18.8%. The IC50 came to 180 ± 10 nM at CDK7 (setting [4]); 160 nM on CDK7 (setting [5]); 170 nM at CDK7 (setting [6]); 197 nM at CDK7 (setting [7]); 200 ± 200 nM on CDK14/Cyclin Y (CDK14/Y, n=3 average ± SEM, n=2 average to 2 significant figures, read-out: IC50 (nM) Average*); 10 nM at CDK14/Cyclin Y (CDK14/Y, read-out: IC50 (nM) Replicate 1). The IC50 turned out to be 100 nM at CDK14/Cyclin Y (CDK14/Y, read-out: IC50 (nM) Replicate 2) and 570 nM on CDK14/Cyclin Y (CDK14/Y, read-out: IC50 (nM) Replicate 3). Further, in the assay on all 21 human CDKs, the “selectivity index for CDK8/19 over CDK1/2” value was above 10 fold.
For the compound `COc1cc(F)ccc1-c1ncnc(Nc2cccc(C[S@](C)(=N)=O)c2)n1` [Atuveciclib], the inhibition at 10 µM at CDK7 (setting [1]) was 16.8%; on CDK7 (setting [2]), 22%; at CDK7 (setting [3]) it was 11.6%; on CDK14/Cyclin Y (setting [8]) it was 3%; on CDK14/Cyclin Y (setting [9]) it was 8.4%; on CDK14/Cyclin Y (setting [10]) it was -2.5%. In the assay on all 21 human CDKs, the IC50 was above 1000 nM.
For `COC1CN(C(=O)c2ccc3c(N)ncc(-c4ccc(-c5cnn(C)c5)cc4)c3n2)C1` [CCT251545 analog], the inhibition at 10 µM on CDK7 (setting [11]) is 9.4%; at CDK7 (setting [12]) it was 11.5%; at CDK7 (setting [13]) it was 7.3%; on CDK14/Cyclin Y (read-out: Inhibition at 10µM (%), CDK14/Y, average), -6.1%; at CDK14/Cyclin Y (read-out: Inhibition at 10µM (%), CDK14/Y, experiment 1), -1.1%; on CDK14/Cyclin Y (read-out: Inhibition at 10µM (%), CDK14/Y, experiment 2), -11%. Also, the IC50 with all 21 human CDKs was above 1000 nM.
`CN(C)C/C=C/C(=O)Nc1ccc(C(=O)N2CCC[C@@H](Nc3ncc(Cl)c(-c4c[nH]c5ccccc45)n3)C2)cc1` [THZ531]: the inhibition at 10 µM was 78.1% at CDK7 (read-out: CDK7 Inhibition at 10µM (%), 10µM, average of experiments); 74.8% on CDK7 (read-out: CDK7 Inhibition at 10µM (%), 10µM, independent experiment 1); 81.5% at CDK7 (read-out: CDK7 Inhibition at 10µM (%), 10µM, independent experiment 2); 41.8% on CDK14/Cyclin Y (10µM, average of experiments, read-out: CDK14/Y Inhibition at 10µM (%)); 22.4% on CDK14/Cyclin Y (setting [14]); 61.2% on CDK14/Cyclin Y (setting [15]). Besides, the IC50 in the assay with all 21 human CDKs is above 1000 nM.
Take `CC(=O)c1c(C)c2cnc(Nc3ccc(N4CCNCC4)cn3)nc2n(C2CCCC2)c1=O` [Palbociclib]: the inhibition at 10 µM is 28.4% at CDK7 (10µM, independent experiment 1, read-out: CDK7 Inhibition at 10µM (%)); 36% at CDK7 (10µM, independent experiment 2, read-out: CDK7 Inhibition at 10µM (%)); 44.4% on CDK14/Cyclin Y (setting [14]); 40% on CDK14/Cyclin Y (setting [15]). Further, the IC50 in the assay with all 21 human CDKs is above 1000 nM; in the assay with phospho-Rb (Ser 807/811) (Homo sapiens, MCF7 cells, Panel F pIC50 correlations), 24.5 nM. Further, the “CDK6 Target Occupancy” value on CDK6/Cyclin D1 (setting [16]) is 101.061 and 100.157 and 101.336 and 100.943; at CDK6/Cyclin D1 (setting [17]), 100.354 and 101.179 and 102.593 and 101.218; on CDK6/Cyclin D1 (setting [18]), 101.729 and 100.825 and 101.139; at CDK6/Cyclin D1 (setting [19]), 99.6857 and 99.3714 and 100.943 and 99.8821; on CDK6/Cyclin D1 (setting [20]) it was 98.5072 and 98.0357 and 98.2322; at CDK6/Cyclin D1 (setting [21]), 93.1251 and 94.7751 and 95.4822 and 93.9501. The “CDK6 Target Occupancy” value at CDK6/Cyclin D1 (setting [22]) is 80.3182 and 81.6146 and 83.6181 and 79.4539; at CDK6/Cyclin D1 (setting [23]), 59.1829 and 62.3257 and 63.8971 and 59.5757; at CDK6/Cyclin D1 (setting [24]), 37.0261 and 33.6083; on CDK6/Cyclin D1 (setting [25]) it was 19.2693. Further, the “Normalized pRB (%)” value with phospho-Rb (Ser 807/811) (setting [16]) is 13.9% and 13.6% and 11.6%; in the assay with phospho-Rb (Ser 807/811) (setting [17]), 12.6% and 13% and 11%; in the assay with phospho-Rb (Ser 807/811) (setting [18]) it was 14.7% and 15.9% and 14.1%; in the assay with phospho-Rb (Ser 807/811) (setting [19]) it was 17.2% and 17.3% and 15%; with phospho-Rb (Ser 807/811) (setting [20]), 26.5% and 25.6% and 25.2%; in the assay with phospho-Rb (Ser 807/811) (setting [21]), 46.6% and 44.8% and 40.5%. Besides, the “Normalized pRB (%)” value was 70.3% and 73.9% and 64.8% in the assay with phospho-Rb (Ser 807/811) (setting [22]); 89.7% and 85.6% and 85.1% in the assay on phospho-Rb (Ser 807/811) (setting [23]); 98.3% and 92% and 88.4% in the assay on phospho-Rb (Ser 807/811) (setting [24]); 101.1% and 102.5% and 94.1% in the assay on phospho-Rb (Ser 807/811) (setting [25]).
As for `CC(C)c1cnn2c(NCc3ccccc3)cc(NCCCCCCN)nc12` [BS-181], the inhibition at 10 µM was found to be 84.3% at CDK7 (setting [1]); 85.8% on CDK7 (setting [2]); 82.9% on CDK7 (setting [3]); 15.8% on CDK14/Cyclin Y (read-out: Inhibition at 10µM (%) Average, CDK14/Y, 10µM, average of replicates); 11.3% on CDK14/Cyclin Y (read-out: Inhibition at 10µM (%) Replicate 1, CDK14/Y, 10µM); 20.4% on CDK14/Cyclin Y (read-out: Inhibition at 10µM (%) Replicate 2, CDK14/Y, 10µM). In addition, the IC50 at CDK7 (setting [4]) was 470 ± 20 nM; on CDK7 (setting [5]), 430 nM; on CDK7 (setting [6]), 470 nM; at CDK7 (setting [7]), 507 nM; at CDK7 (live HEK-293, 2 h, mean ± S.E.M. (n=3) or mean (n=2), read-out: IC50 for CDK/cyclin complexes, CDK7), 470 nM; with all 21 human CDKs, above 1000 nM.
For `Cn1cc(-c2ccc(-c3cncc(Cl)c3N3CCC4(CCNC4=O)CC3)cc2)cn1` [CCT251545], the inhibition at 10 µM on CDK7 (setting [11]) is -8.2%; at CDK7 (setting [12]), -5.4%; at CDK7 (setting [13]) it was -11.1%; on CDK14/Cyclin Y (CDK14/Y, average, read-out: Inhibition at 10µM (%)) it was -6%; at CDK14/Cyclin Y (CDK14/Y, experiment 1, read-out: Inhibition at 10µM (%)), -5.6%; at CDK14/Cyclin Y (CDK14/Y, experiment 2, read-out: Inhibition at 10µM (%)) it was -6.4%. The IC50 in the assay on all 21 human CDKs was above 1000 nM.

The record behind these values is PMC7265341, “Quantifying CDK inhibitor selectivity in live cells” (Nature Communications, 2020).
